From patent publication US20190373892A1, “FORMALDEHYDE-FREE PRESERVATIVES FOR HIGHLY SUSCEPTIBLE PRODUCTS” (Troy Corporation, priority 2018, published 2019)
Converted amounts (≈) assume the structure as drawn.

How the values were obtained:
[1] = system: Pseudomonas aeruginosa (ATCC #10145); assay: Minimum Inhibitory Concentration (MIC) testing by microbroth dilution; format: cell-based; settings: ATCC10145, 72 h, 1x Nutrient Broth, 35° C., 3 days, no growth via turbidity
[2] = system: Alcaligenes faecalis (ATCC #25094), Enterobacter aerogenes (ATCC #13048), Escherichia coli (ATCC #11229), Pseudomonas aeruginosa (ATCC #10145) and Pseudomonas …; assay: Bacterial challenge test in laboratory-made wallboard joint compound; format: cell-based; settings: 200 ppm total active
Excerpt: Because this bacterial challenge test is intended to test the performance of in-can preservatives during long-term storage, only the last day of each seven-day challenge is considered important. The test sample was inoculated with bacteria on the first day of each seven-day challenge.
Bacteria were inoculated into the laboratory-made test wallboard joint formulations at approximately 10^6 CFU/g at time equals zero on the first day of each seven-day cycle. Viability of the bacteria was monitored semi-quantitatively through streak analysis 1, 2, and 7 days after inoculation. This procedure was performed twice for a total of two to four seven-day cycles. A rating of “4” indicates heavy growth, while a rating of “0” indicates undetectable growth, defined as <10 CFU/g of material. Samples free of detectable growth after 7 days are considered to be well-preserved.
For comparison, a blank, unpreserved laboratory-made wallboard joint composition is shown, as well as a laboratory-made wallboard joint composition that is preserved with a commercial formaldehyde-producing preservative, comprising 78 wt % of 2,2′,2″-(hexahydro-1,3,5-triazine-1,3,5-triyl)-triethanol (HHT). The various preservatives were added to the laboratory-made wallboard joint compound at the levels shown, in ppm by weight.

MIC [1]: 30.8 µg/mL (≈ 204 µM)
Compound: O=c1[nH]sc2ccccc12 [BIT, 1,2-benzisothiazol-3(2H)-one]
Protection of wallboard joint compound in words [2]: neither 200 ppm BIT nor Ziram alone being capable of protecting the wallboard joint compound
